Measurements published in paper PMC6332026, “Synthesis and Pharmacochemistry of New Pleiotropic Pyrrolyl Derivatives” (Molecules, 2015).
Marks after values point to notes of the source that are not given here.

Key:
[1] = Superoxide radical scavenging activity (non-enzymatic, PMS/NADH, NBT method); settings: 100 μM
Excerpt: Superoxide anion radical is an active form of oxygen, and it is the product of the one-electron reduction of […] oxygen. Herein, superoxide radicals were formed by mixing phenazine methosulfate (PMS) with NADH and air-oxygen. The production of radicals was estimated with the nitroblue-tetrazolium method (NBT). From the tested pyrroles, Compounds 2i and 2iii were equipotent (57%) scavengers. […] In contrast, the dipole moment appeared to be important. The values of the dipole, as calculated by the program Spartan v.5.1.3.
The superoxide anion radicals were produced non-enzymatically by mixing phenazine methosulfate (PMS) with NADH and air-oxygen. The production of superoxide radicals was estimated with the nitroblue-tetrazolium (NBT) method with 3 μΜ PMS, 78 μΜ NADH and 25 μΜ NBT in 19 μΜ phosphate buffer pH 7.4. The absorbance was measured at 560 nm at room temperature. The tested compounds were added in the mixture 2 min before the addition of NADH [52].

[2] = Inhibition of heme-dependent lipid peroxidation of linoleic acid (TBA method); settings: pH 7.4, 37 °C
Description: The anti-lipid peroxidation activity was determined through the inhibition of heme-dependent lipid peroxidation. The peroxidation of sodium linoleate is induced from a mixture of heme and hydrogen peroxide, which produces free radicals from the side chains of amino acids. The assay is performed at pH 7.4 with a phosphate buffer, and the products of peroxidation are identified with the thiobarbituric acid method (TBA). In particular, malonic dialdehyde, a final product of lipid peroxidation, reacts with TBA and forms a colored product, whose absorbance is measured at 535 nm. […] Compounds 2ii and 2vi with low Clog P values are weak inhibitors of lipid peroxidation. It seems that the increase of volume of Ar^1, measured as molar refractivity MR (Ar^1), enhances IC50 values and reduces the inhibitory activity (2i and 2iii; and 2ii, 2iv and 2vi). For derivatives 2iv and 2v, the presence of an electron-acceptor, e.g., a chloro-substituent on the phenyl ring (Ar^2), diminishes the anti-lipid peroxidation activity.
Firstly, 0.4 mL of heme (50 μΜ), 0.25 mL of sodium linoleate (400 μΜ), 0.1 mL of the solutions of the tested compounds (concentrations varying from 10–100 μΜ in DMSO) and 0.25 mL of H2O2 (500 μΜ) were incubated for 10 min in 37 °C in a phosphate buffer (KH2PO4–KOH 50 mM, pH 7.4). The peroxidation products were identified with the reaction of thiobarbituric acid, by adding successively 0.5 mL of 40% trichloroacetic acid (TCA) and 0.5 mL of 2% of thiobarbituric acid (TBA). The addition was followed by stirring and heating at 90 °C for 20 min, and then, 1 mL of acetic acid and 1 mL of chloroform were added and the absorbance measured at 535 nm. IC50 values were determined.

[3] = system: carrageenan-induced rat paw edema; assay: Inhibition of rat paw edema induced by carrageenan; assay type: in vivo, Fischer 344 rats; settings: 0.01 mmol/kg body weight, intraperitoneally, 3.5 h; for inhibition in vivo at 10 µmol/kg: Rattus norvegicus, ip, read-out: CPE % inhibition of rat paw edema induced by carrageenan
Description: The pyrrolyl derivatives, as well as their precursor chalcones were tested in vivo for the inhibition of rat paw edema induced by carrageenan. […] […]. For Compounds 2i, 2iii, 2iv and 2v, we determined their ED50 values. […]. The finding supports the primary idea of this design.
Edema was induced in the right hind paw of Fischer 344 rats (150–200 g). In the study, both males and females were included, with the exemption of pregnant females. The animals, which have been bred in our laboratory, were housed under standard conditions and received a diet of commercial food pellets and water ad libitum during maintenance. One hour before the onset of the experiment, food and water were removed. The tested compounds (dose 0.01 mmol/kg body weight) were diluted in water with a few drops of Tween 80, and they were administered intraperitoneally simultaneously with the intradermal injection of 0.1 mL 2% of carrageenan in water. The animals were euthanatized 3.5 h after the carrageenan administration. The difference between the weight of injected and uninjected paws was calculated for each animal and was compared to control animals, which were treated with water. Indomethacin was used as a reference compound in 0.01 mmol/kg. The results were expressed as the percent inhibition of the edema (CPE %).

[4] = Interaction with the stable free radical DPPH (reducing activity); settings: for RA % (interaction with DPPH): DPPH 50 μM; for interaction with DPPH: 10 μM compound
Description: 2,2-Diphenyl-1-picrylhydrazyl (DPPH) is a lipophilic, free, stable radical, which absorbs at 517 nm (violet color). Upon reduction, decolorization is observed that is stoichiometric to the number of received electrons and is representative of the antioxidant ability of compounds. […] This interaction, which indicates their radical scavenging ability in an iron-free system, was measured at 100 and 1000 μM after 20 and 60 min, whereas the final concentration of DPPH was stable at 50 μΜ.
[…] The absorbance was measured at 517 nm after 20 and 60 min at room temperature.

COX-2 = target: T1, COX-2 (Homo sapiens, UniProt P35354); assay: Inhibition of cycloxygenase-2 (colorimetric TMPD assay)
T1 sequence (P35354 18-604): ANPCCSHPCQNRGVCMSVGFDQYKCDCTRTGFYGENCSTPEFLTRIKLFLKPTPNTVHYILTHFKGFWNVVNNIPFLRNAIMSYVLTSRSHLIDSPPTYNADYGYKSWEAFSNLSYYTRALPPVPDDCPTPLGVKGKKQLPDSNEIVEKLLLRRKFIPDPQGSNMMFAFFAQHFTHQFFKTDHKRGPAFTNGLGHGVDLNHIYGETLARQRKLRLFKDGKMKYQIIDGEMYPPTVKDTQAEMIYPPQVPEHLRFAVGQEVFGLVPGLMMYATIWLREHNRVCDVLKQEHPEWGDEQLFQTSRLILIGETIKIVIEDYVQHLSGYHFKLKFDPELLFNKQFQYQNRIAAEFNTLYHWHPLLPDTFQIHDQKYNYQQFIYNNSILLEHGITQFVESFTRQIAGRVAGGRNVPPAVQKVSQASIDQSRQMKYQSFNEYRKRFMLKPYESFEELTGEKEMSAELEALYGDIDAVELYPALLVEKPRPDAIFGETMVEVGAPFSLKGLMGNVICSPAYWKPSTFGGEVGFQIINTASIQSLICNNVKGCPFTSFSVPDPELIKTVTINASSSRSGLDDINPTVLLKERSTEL
Description: The inhibition of COX-2, as a peroxidase, was determined by a colorimetric assay with the oxidation of N,N,N′,N′-tetramethyl-p-phenylenediamine (TMPD).
COX-2 inhibitory activity was determined by using arachidonic acid (AA) as a substrate in buffer (0.1 M Tris pH 8.5) and TMPD as a co-substrate.

[5] = Lipophilicity as RM values by reverse-phase thin layer chromatography (RPTLC); assay type: physicochemical; settings: methanol/water 75/25 v/v with ammonia drops
Excerpt: Since lipophilicity is a significant physicochemical property determining the absorption, distribution, metabolism and excretion properties (ADME) of drugs, we attempted to determine experimentally the lipophilicity as RM values with reverse-phase thin layer chromatography (RPTLC). Lipophilicity was also theoretically calculated as Clog P values. According to the calculated Clog P values, the most lipophilic compounds were 2iii (6.37) and 2v (6.04). However, this observation was not supported by the RM values, since Compound 2iii presented very low lipophilicity (−0.061). Furthermore, the lipophilicity of Compound 2v could not be determined experimentally under the reported conditions. Attempts to correlate Clog P and RM values failed. From our results (Table 2), it can be concluded that RM values could not be used as a successful relative measure of the overall lipophilic/hydrophilic properties of these molecules. Tentatively, this can be attributed to the different nature of the hydrophilic and lipophilic phases in the two systems. Clog P refers to n-octanol/water, whereas RM in this case refers to methanol/water. Moreover, it is likely that pyrrole derivatives form hydrogen bonds within the hydrophilic phase.
Reverse-phase thin layer chromatography (RPTLC) was used for the determination of RM values. Silica gel plates were saturated with 5% v/v liquid paraffin in petroleum ether, and the mobile phase was methanol/water (75/25 v/v) with the addition of ammonia drops. Spots were detected under UV light. RM values were determined by the corresponding Rf values (from five measurements for each compound) using the equation [43]: RM = log[(1/Rf) − 1](1)

interleukin-6 (IL-6) = target: T2, interleukin-6 (IL-6) (Mus musculus, UniProt P08505); assay: Inhibition of interleukin-6 (immunometric double antibody sandwich EIA); assay type: biochemical; settings: compound 10 μM; IL-6 1500 pg/mL
T2 construct: purchased Cayman Item No. 583371
T2 sequence (P08505 25-211): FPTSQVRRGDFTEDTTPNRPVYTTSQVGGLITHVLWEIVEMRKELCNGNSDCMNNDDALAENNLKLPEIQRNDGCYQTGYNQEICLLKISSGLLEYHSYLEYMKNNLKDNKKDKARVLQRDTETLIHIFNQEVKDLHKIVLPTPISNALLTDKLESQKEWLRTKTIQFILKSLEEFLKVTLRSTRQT
Description: The assay used for the inhibition of IL-6 is based on an immunometric double antibody method (sandwich technique). […] Both compounds gave satisfactory biological responses, both in high and in low concentrations of IL-6 (Table 8).
The method was based on an immunometric double antibody sandwich technique. Each well of the microwell plate was coated with a specific for mouse IL-6 rat monoclonal antibody. Tested compounds at 10 μΜ and standards were incubated in the wells, and after rinsing, a second monoclonal antibody was added, which was conjugated with biotin and detected the captured IL-6. The recognition of double antibody sandwiches was done with HRP-conjugated streptavidin. The concentration of IL-6 was determined by measuring the enzymatic activity of HRP using the chromogenic substrate TMB (3,3′,5,5′-tetramethylbenzidine). The absorbance of the reaction product was measured at 450 nm, and the intensity of the color was directly proportional to the amount of bound HRP-streptavidin conjugate, which was proportional to the concentration of IL-6.

## O=C(O)/C=C/c1ccc(O)c(O)c1 [Caffeic acid, reference compound]
[1]
  O2^•− % superoxide radical scavenging activity: 86.1%
[2]; read-out: LP IC50 (inhibition of heme-dependent lipid peroxidation of linoleic acid)
  IC50: 6 µM

## O=C(C=Cc1cccc(Oc2ccccc2)c1)c1cccs1 [Compound 1i, 3-(3-Phenoxyphenyl)-1-(thien-2-yl)prop-2-en-1-one]
other
  melting point: 48 to 50 °C
[3]
  inhibition in vivo at 10 µmol/kg: 41%
[4]; 100 μM compound, 20 min
  RA % (interaction with DPPH): 43%
[4]; 100 μM compound, 60 min
  RA % (interaction with DPPH): 2%
[4]; 1000 μM compound, 20 min
  RA % (interaction with DPPH): 5%

## CN(C)c1ccc(C=CC=CC(=O)c2ccccc2)cc1 [Compound 1ii, 5-[4-(Dimethylamino)phenyl]-1-phenylpenta-2,4-dien-1-one]
[3]
  inhibition in vivo at 10 µmol/kg: 69%
[4]; 100 μM compound, 20 min
  RA % (interaction with DPPH): 31%
[4]; 100 μM compound, 60 min
  RA % (interaction with DPPH): 13%
[4]; 1000 μM compound, 20 min
  RA % (interaction with DPPH): 38%
[4]; 1000 μM compound, 60 min
  RA % (interaction with DPPH): 42%

## O=C(C=Cc1ccc(OCc2ccc(Br)cc2)cc1)c1cccs1 [Compound 1iii, 3-{4-[(4-Bromobenzyl)oxy]phenyl}-1-(thien-2-yl)prop-2-en-1-one]
other
  melting point: 141 to 143 °C
[3]
  inhibition in vivo at 10 µmol/kg: 86%

## O=C(C=Cc1cccc2ccccc12)c1ccccc1 [Compound 1iv, 3-(Naphth-1-yl)-1-phenylprop-2-en-1-one]
[3]
  inhibition in vivo at 10 µmol/kg: 40%

## O=C(C=Cc1cccc2ccccc12)c1ccc(Cl)cc1 [Compound 1v, 3-(Naphth-1-yl)-1-(4-chloro)phenylprop-2-en-1-one]
[3]
  CPE % inhibition of rat paw edema induced by carrageenan: 44 ^d %

## O=C(C=Cc1ccc2[nH]ccc2c1)c1ccccc1 [Compound 1vi, 3-(1H-Indol-5-yl)-1-phenylprop-2-en-1-one]
[3]
  inhibition in vivo at 10 µmol/kg: 42%

## CN(C)c1ccc(/C=C/c2c[nH]cc2C(=O)c2ccccc2)cc1 [Compound 2ii, (E)-{4-[4-(Dimethylamino)styryl]-1H-pyrrol-3-yl}(phenyl)methanone]
other
  melting point: 219 to 220 °C
[2]
  LP IC50 (inhibition of heme-dependent lipid peroxidation of linoleic acid): inactive
[3]
  inhibition in vivo at 10 µmol/kg: 89%
[4]; 20 min
  interaction with DPPH: 35%
[4]; 60 min
  interaction with DPPH: 40%
[4]; 100 μM compound, 20 min
  RA % (interaction with DPPH): 86%
[4]; 100 μM compound, 60 min
  RA % (interaction with DPPH): 88%
[4]; 1000 μM compound, 20 min
  RA % (interaction with DPPH): 99%
[4]; 1000 μM compound, 60 min
  RA % (interaction with DPPH): 96%
COX-2; read-out: COX-2 % inhibition
  inhibition at 100 µM: 47%
[5]
  RM: 0.073

## O=C(c1ccccc1)c1c[nH]cc1-c1ccc2[nH]ccc2c1 [Compound 2vi, [4-(1H-Indol-5-yl)-1H-pyrrol-3-yl](phenyl)methanone]
other
  melting point: 247 to 248 °C
[1]
  O2^•− % superoxide radical scavenging activity: 86%
[2]
  LP IC50 (inhibition of heme-dependent lipid peroxidation of linoleic acid): inactive
COX-2; 100 μM
  COX-2 % inhibition: inactive
[5]
  RM: −0.685

## COc1ccc2c(c1)c(CC(=O)O)c(C)n2C(=O)c1ccc(Cl)cc1 [Indomethacin, reference compound]
interleukin-6 (IL-6)
  inhibition at 10 µM: 100%
[3]
  inhibition in vivo at 10 µmol/kg: 53%

## CC(Cc1ccc(O)c(O)c1)C(C)Cc1ccc(O)c(O)c1 (stereo not drawn) [NDGA, nordihydroguaiaretic acid, reference compound]
[4]; 100 μM compound, 20 min
  RA % (interaction with DPPH): 81%
[4]; 100 μM compound, 60 min
  RA % (interaction with DPPH): 83%
[4]; 1000 μM compound, 20 min
  RA % (interaction with DPPH): 96%
[4]; 1000 μM compound, 60 min
  RA % (interaction with DPPH): 96%
